Consider 26 compounds from patent US20260216164A1, “INDOLE COMPOUND DECOMPOSING IKZF2, AND USE THEREOF” (KOREA RESEARCH INSTITUTE OF CHEMICAL TECHNOLOGY, priority 2023, published 2026).

The test addresses Helios (IKZF2) (Homo sapiens, UniProt Q96SW2+Q9UKS7). The test is described as follows: Screening of Helios protein degraders using Nano-Glo HiBiT cell line (HiBiT-IKZF2). In kind it is cell-based. To be noted: for IKZF2 degradation activity (in words, comment on Table 1): as shown in Table 1; for remaining activity at 10 µM: compound 10 μM, read-out: HiBiT-IKZF2 Residual amount of Helios (%) 10 μM; for remaining activity at 10 µM / remaining activity at 1 µM: 6 hours, HiBiT-Helios knock-in Jurkat cells; for remaining activity at 1 µM: compound 1 μM, read-out: HiBiT-IKZF2 Residual amount of Helios (%) 1 μM. How it is done:
To observe intracellular degradation of Helios, the Nano-Glo HiBiT detection system (Promega) was employed. […] The cells expressing Helios fused with HiBiT were validated using the Nano-Glo HiBiT detection system (Promega) according to a predetermined protocol, isolated as single cells, and cultured in complete medium to establish a monoclonal cell line.
After 6 hours, the Nano-Glo HiBiT detection reagent was added to each well in an equal volume to the cell culture medium and incubated at room temperature for 10 minutes. Following incubation, the HiBiT luminescence signal was measured using a microplate reader (Perkin Elmer).
On the technique in general: The HiBiT peptide binds its large partner to form an active luciferase.

Chain of Helios (IKZF2) (Q9UKS7 whole entry, the tested form may be a part): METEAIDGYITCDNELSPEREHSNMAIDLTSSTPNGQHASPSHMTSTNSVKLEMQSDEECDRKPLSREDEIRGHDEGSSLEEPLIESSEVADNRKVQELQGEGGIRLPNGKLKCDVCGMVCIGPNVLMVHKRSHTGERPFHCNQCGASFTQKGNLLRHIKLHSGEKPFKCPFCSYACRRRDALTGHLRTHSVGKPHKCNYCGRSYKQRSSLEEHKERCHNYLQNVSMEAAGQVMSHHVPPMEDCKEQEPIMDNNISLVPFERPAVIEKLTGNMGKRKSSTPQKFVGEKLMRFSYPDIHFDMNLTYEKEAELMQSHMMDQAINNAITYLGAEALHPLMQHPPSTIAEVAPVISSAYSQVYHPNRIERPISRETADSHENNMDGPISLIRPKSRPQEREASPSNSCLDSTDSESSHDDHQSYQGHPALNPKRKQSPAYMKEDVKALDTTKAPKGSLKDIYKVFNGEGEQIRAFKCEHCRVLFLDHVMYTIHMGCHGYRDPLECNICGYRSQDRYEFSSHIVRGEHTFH
Chain of Helios (IKZF2) (Q96SW2 whole entry, the tested form may be a part): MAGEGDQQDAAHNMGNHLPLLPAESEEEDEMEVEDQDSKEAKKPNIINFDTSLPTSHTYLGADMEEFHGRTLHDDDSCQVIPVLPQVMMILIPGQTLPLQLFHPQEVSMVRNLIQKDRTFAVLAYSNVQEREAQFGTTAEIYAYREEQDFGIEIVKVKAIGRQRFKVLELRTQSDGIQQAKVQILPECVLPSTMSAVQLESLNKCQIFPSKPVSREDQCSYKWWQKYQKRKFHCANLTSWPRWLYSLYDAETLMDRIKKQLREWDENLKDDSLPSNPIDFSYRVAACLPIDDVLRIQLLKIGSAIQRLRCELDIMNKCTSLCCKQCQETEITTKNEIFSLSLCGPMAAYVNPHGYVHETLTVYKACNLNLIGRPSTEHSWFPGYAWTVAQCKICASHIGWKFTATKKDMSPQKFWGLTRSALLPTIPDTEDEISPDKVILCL
Chain of Helios (IKZF2) (Q16531 whole entry partner, the tested form may be a part): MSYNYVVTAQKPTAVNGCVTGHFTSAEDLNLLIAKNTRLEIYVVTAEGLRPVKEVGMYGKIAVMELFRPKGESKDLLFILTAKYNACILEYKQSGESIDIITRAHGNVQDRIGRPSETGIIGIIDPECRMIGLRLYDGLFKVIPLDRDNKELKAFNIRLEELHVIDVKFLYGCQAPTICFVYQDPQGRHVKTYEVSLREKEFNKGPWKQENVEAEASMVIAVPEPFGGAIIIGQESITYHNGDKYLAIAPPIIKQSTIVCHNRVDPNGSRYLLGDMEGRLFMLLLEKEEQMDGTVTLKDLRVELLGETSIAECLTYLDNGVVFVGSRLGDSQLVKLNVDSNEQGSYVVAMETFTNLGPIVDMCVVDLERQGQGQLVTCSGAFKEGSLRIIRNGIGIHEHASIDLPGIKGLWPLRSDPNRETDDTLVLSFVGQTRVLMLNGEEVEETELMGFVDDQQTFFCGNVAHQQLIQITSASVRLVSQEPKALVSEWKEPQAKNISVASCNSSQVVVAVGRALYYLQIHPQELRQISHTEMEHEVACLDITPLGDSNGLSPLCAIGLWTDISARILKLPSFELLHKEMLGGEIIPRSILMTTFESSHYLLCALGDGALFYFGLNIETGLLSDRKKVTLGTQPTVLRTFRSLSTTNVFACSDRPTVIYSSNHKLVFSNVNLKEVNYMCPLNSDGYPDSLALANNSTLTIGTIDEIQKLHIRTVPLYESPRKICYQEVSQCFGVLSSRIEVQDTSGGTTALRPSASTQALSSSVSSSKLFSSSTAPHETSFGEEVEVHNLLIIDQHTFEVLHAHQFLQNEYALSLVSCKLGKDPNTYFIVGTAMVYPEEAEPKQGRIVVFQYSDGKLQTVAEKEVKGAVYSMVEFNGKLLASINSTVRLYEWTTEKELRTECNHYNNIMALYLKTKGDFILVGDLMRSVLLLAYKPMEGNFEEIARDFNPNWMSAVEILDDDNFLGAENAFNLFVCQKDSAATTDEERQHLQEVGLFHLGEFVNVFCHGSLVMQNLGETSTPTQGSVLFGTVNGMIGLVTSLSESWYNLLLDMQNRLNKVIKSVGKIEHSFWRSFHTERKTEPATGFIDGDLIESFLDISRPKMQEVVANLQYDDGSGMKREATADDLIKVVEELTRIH

In the case of `O=C1CCC(N2Cc3cc(C4CCN(C(=O)c5nc6ccc(Cl)cc6[nH]5)CC4)ccc3C2=O)C(=O)N1` (stereo not shown) [Comparative Substance 3, 3-(5-(1-(6-chloro-1H-benzo[d]imidazole-2-carbonyl)piperidin-4-yl)-1-oxoinsoindolin-2-yl)piperidine-2,6-dione, reference compound], the “IKZF2 degradation activity (in words, comment on Table 1)” value was “no IKZF2 degradation activity was observed” and the remaining activity at 10 µM worked out at 100%.

With `O=C1CCC(N2Cc3cc(C4CCN(C(=O)c5cc6cccc(F)c6[nH]5)CC4)ccc3C2=O)C(=O)N1` (stereo not shown) [Compound 19, 3-(5-(1-(7-fluoro-1H-indole-2-carbonyl)piperidin-4-yl)-1-oxoinsoindolin-2-yl)piperidine-2,6-dione], the remaining activity at 1 µM was determined as 80.5% and the remaining activity at 10 µM amounted to 82.7%.

As to `O=Cc1c(C(=O)N2CCC(c3ccc4c(c3)CN(C3CCC(=O)NC3=O)C4=O)CC2)[nH]c2ccccc12` (stereo not shown) [Compound 35, 2-(4-(2-(2,6-dioxopiperidin-3-yl)-1-oxoindolin-5-yl)piperidine-1-carbonyl)-1H-indole-3-carbaldehyde], the remaining activity at 1 µM came to 76.6% and the remaining activity at 10 µM stood at 52.3%.

For the compound `Cc1c(C(=O)N2CCC(c3ccc4c(c3)CN(C3CCC(=O)NC3=O)C4=O)CC2)[nH]c2ccc(Br)cc12` (stereo not shown) [Compound 33, 3-(5-(1-(5-bromo-3-methyl-1H-indole-2-carbonyl)piperidin-4-yl)-1-oxoinsoindolin-2-yl)piperidine-2,6-dione], the remaining activity at 1 µM came to 71.3% and the remaining activity at 10 µM came to 64.4%.

`Cc1c(C(=O)N2CCC(=Cc3ccc4c(c3)CN(C3CCC(=O)NC3=O)C4=O)CC2)[nH]c2ccccc12` (stereo not shown) [Compound 27, 3-(5-((1-(3-methyl-1H-indole-2-carbonyl)piperidin-4-ylidene)methyl)-1-oxoinsoindolin-2-yl)piperidine-2,6-dione]: the remaining activity at 1 µM came out at 96.4% and the remaining activity at 10 µM is 91.7%.

Regarding `Nc1ccc2cc(C(=O)N3CCC(c4ccc5c(c4)CN(C4CCC(=O)NC4=O)C5=O)CC3)[nH]c2c1` (stereo not shown) [Compound 32, 3-(5-(1-(6-amino-1H-indole-2-carbonyl)piperidin-4-yl)-1-oxoinsoindolin-2-yl)piperidine-2,6-dione], the remaining activity at 1 µM is 62.1% and the remaining activity at 10 µM came to 57.3%.

Consider `O=C1CCC(N2Cc3cc(C4CCN(C(=O)c5cc6ccccc6[nH]5)CC4)ccc3C2=O)C(=O)N1` (stereo not shown) [Compound 9, 3-(5-(1-(1H-indole-2-carbonyl)piperidin-4-yl)-1-oxoinsoindolin-2-yl)piperidine-2,6-dione], for which the remaining activity at 1 µM amounted to 94.5% and the remaining activity at 10 µM came to 99.5%.

On to `Cc1c(C(=O)N2CCC(c3ccc4c(c3)CN(C3CCC(=O)NC3=O)C4=O)CC2)[nH]c2cc(Cl)c(Br)cc12` (stereo not shown) [Compound 83, 3-(5-(1-(5-bromo-6-chloro-3-methyl-1H-indole-2-carbonyl)piperidin-4-yl)-1-oxoinsoindolin-2-yl)piperidine-2,6-dione], for which the remaining activity at 10 µM was found to be 49%.

Turning to `COc1ccc2cc(C(=O)Nc3ccc4c(c3)CN(C3CCC(=O)NC3=O)C4=O)ccc2c1` (stereo not shown) [Comparative Substance 4, N-(2-(2,6-dioxopiperidin-3-yl)-1-oxoindolin-5-yl)-6-methoxy-2-naphthamide, reference compound], the remaining activity at 1 µM was found to be 58% and the remaining activity at 10 µM worked out at 56.2%.

Consider `O=C1CCC(N2Cc3cc(C4CCN(C(=O)c5[nH]c6cc(Cl)ccc6c5CO)CC4)ccc3C2=O)C(=O)N1` (stereo not shown) [Compound 105, 3-(5-(1-(6-chloro-3-(hydroxymethyl)-1H-indole-2-carbonyl)piperidin-4-yl)-1-oxoinsoindolin-2-yl)piperidine-2,6-dione], for which the remaining activity at 1 µM amounted to 15.2% and the remaining activity at 10 µM is 8.5%.

As for `Cc1c(C(=O)N2CCC(c3ccc4c(c3)CN(C3CCC(=O)NC3=O)C4=O)CC2)[nH]c2cc(F)ccc12` (stereo not shown) [Compound 54, 3-(5-(1-(6-fluoro-3-methyl-1H-indole-2-carbonyl)piperidin-4-yl)-1-oxoinsoindolin-2-yl)piperidine-2,6-dione], the remaining activity at 10 µM came to 26.8%.

Turning to `O=C1CCC(N2Cc3cc(C4CCN(C(=O)c5cc6c(Cl)cc(Cl)cc6[nH]5)CC4)ccc3C2=O)C(=O)N1` (stereo not shown) [Compound 6, 3-(5-(1-(4,6-dichloro-1H-indole-2-carbonyl)piperidin-4-yl)-1-oxoinsoindolin-2-yl)piperidine-2,6-dione], the remaining activity at 1 µM worked out at 107% and the remaining activity at 10 µM is 107%.

In the case of `COc1ccc2c(CN3CCOCC3)c(C(=O)N3CCC(c4ccc5c(c4)CN(C4CCC(=O)NC4=O)C5=O)CC3)[nH]c2c1` (stereo not shown) [Compound 110, 3-(5-(1-(6-methoxy-3-(morpholinomethyl)-1H-indole-2-carbonyl)piperidin-4-yl)-1-oxoinsoindolin-2-yl)piperidine-2,6-dione], the remaining activity at 1 µM was 14.2%.

For the compound `Cc1c(C(=O)N2CC(N3CCC(c4ccc5c(c4)CN(C4CCC(=O)NC4=O)C5=O)CC3)C2)[nH]c2cc(Cl)ccc12` (stereo not shown) [Compound 63, 3-(5-(1-(1-(6-chloro-3-methyl-1H-indole-2-carbonyl)azetidin-3-yl)piperidin-4-yl)-1-oxoinsoindolin-2-yl)piperidine-2,6-dione], the “IKZF2 degradation activity (in words, comment on Table 1)” value is “excellent IKZF2 degradation activity” and the remaining activity at 10 µM is 30.7%.

In the case of `COc1cccc2cc(C(=O)N3CCC(c4ccc5c(c4)CN(C4CCC(=O)NC4=O)C5=O)CC3)[nH]c12` (stereo not shown) [Compound 12, 3-(5-(1-(7-methoxy-1H-indole-2-carbonyl)piperidin-4-yl)-1-oxoinsoindolin-2-yl)piperidine-2,6-dione], the remaining activity at 1 µM amounted to 89.9% and the remaining activity at 10 µM amounted to 94.1%.

Turning to `COc1ccc2cc(C(=O)N3CCC(c4ccc5c(c4)CN(C4CCC(=O)NC4=O)C5=O)CC3)[nH]c2c1` (stereo not shown) [Compound 5, 3-(5-(1-(6-methoxy-1H-indole-2-carbonyl)piperidin-4-yl)-1-oxoinsoindolin-2-yl)piperidine-2,6-dione], the remaining activity at 1 µM stood at 86.7% and the remaining activity at 10 µM stood at 88.2%.

For the compound `O=C1CCC(N2Cc3cc(C4CCN(C(=O)c5cc6ccc(C(F)(F)F)cc6[nH]5)CC4)ccc3C2=O)C(=O)N1` (stereo not shown) [Compound 41, 3-(1-oxo-5-(1-(6-(trifluoromethyl)-1H-indole-2-carbonyl)piperidin-4-yl)isoindolin-2-yl)piperidine-2,6-dione], the remaining activity at 1 µM stood at 41.7% and the remaining activity at 10 µM is 38.5%.

On to `Cc1ccc2c(C)c(C(=O)N3CCC(c4ccc5c(c4)CN(C4CCC(=O)NC4=O)C5=O)CC3)[nH]c2c1` (stereo not shown) [Compound 69, 3-(5-(1-(3,6-dimethyl-1H-indole-2-carbonyl)piperidin-4-yl)-1-oxoinsoindolin-2-yl)piperidine-2,6-dione], for which the remaining activity at 1 µM is 22% and the remaining activity at 10 µM was 41.8%.

As to `Cc1c(C(=O)N2CCC(N3CCC(c4ccc5c(c4)CN(C4CCC(=O)NC4=O)C5=O)CC3)CC2)[nH]c2cc(Cl)ccc12` (stereo not shown) [Compound 62, 3-(5-(1-(6-chloro-3-methyl-1H-indole-2-carbonyl)-[1,4′-bipiperidin]-4-yl)-1-oxoinsoindolin-2-yl)piperidine-2,6-dione], the remaining activity at 10 µM stood at 23.8%.

In the case of `O=C1CCC(N2Cc3cc(C4CCN(C(=O)c5cc6ncc(Cl)cc6[nH]5)CC4)ccc3C2=O)C(=O)N1` (stereo not shown) [Compound 45, 3-(5-(1-(6-chloro-1H-picolo[3,2-b]pyridine-2-carbonyl)piperidin-4-yl)-1-oxoinsoindolin-2-yl)piperidine-2,6-dione], the remaining activity at 1 µM is 70.3% and the remaining activity at 10 µM came to 58.2%.

With `COc1c(C(=O)N2CCC(c3ccc4c(c3)CN(C3CCC(=O)NC3=O)C4=O)CC2)[nH]c2ccccc12` (stereo not shown) [Compound 30, 3-(5-(1-(3-methoxy-1H-indole-2-carbonyl)piperidin-4-yl)-1-oxoinsoindolin-2-yl)piperidine-2,6-dione], the remaining activity at 1 µM came to 86.7% and the remaining activity at 10 µM was 78.7%.

Turning to `O=C1CCC(N2Cc3cc(C4CCN(Cc5ccccc5)CC4)ccc3C2=O)C(=O)N1` (stereo not shown) [Comparative Substance 1 (DKY709), reference compound], the remaining activity at 10 µM stood at 40%.

Turning to `O=C1CCC(N2Cc3cc(C=C4CCN(C(=O)c5cc6ccc(Cl)cc6[nH]5)CC4)ccc3C2=O)C(=O)N1` (stereo not shown) [Compound 26, 3-(5-((1-(6-chloro-1H-indole-2-carbonyl)piperidin-4-ylidene)methyl)-1-oxoinsoindolin-2-yl)piperidine-2,6-dione], the remaining activity at 1 µM is 96% and the remaining activity at 10 µM was determined as 97.6%.

In the case of `COc1ccc2[nH]c(C(=O)N3CCC(c4ccc5c(c4)CN(C4CCC(=O)NC4=O)C5=O)CC3)cc2c1` (stereo not shown) [Compound 10, 3-(5-(1-(5-methoxy-1H-indole-2-carbonyl)piperidin-4-yl)-1-oxoinsoindolin-2-yl)piperidine-2,6-dione], the remaining activity at 1 µM amounted to 94.6% and the remaining activity at 10 µM was 97.3%.

On to `O=C1CCC(N2Cc3cc(C4CCN(C(=O)c5cc6cnc(Cl)cc6[nH]5)CC4)ccc3C2=O)C(=O)N1` (stereo not shown) [Compound 46, 3-(5-(1-(6-chloro-1H-picolo[3,2-c]pyridine-2-carbonyl)piperidin-4-yl)-1-oxoinsoindolin-2-yl)piperidine-2,6-dione], for which the remaining activity at 1 µM is 58.1% and the remaining activity at 10 µM was 47.4%.

Take `O=C1CCC(N2Cc3cc(C4CC5CCC(C4)N5C(=O)c4cc5ccc(Cl)cc5[nH]4)ccc3C2=O)C(=O)N1` (stereo not shown) [Compound 57, 3-(5-(8-(6-chloro-1H-indole-2-carbonyl)-8-azabicyclo[3.2.1]octan-3-yl)-1-oxoinsoindolin-2-yl)piperidine-2,6-dione]: the remaining activity at 10 µM stood at 64.5%.
